Measured values reported in US10967032B2, “Optimum ratio for herbs combination obtained by using scientific-based formula for hypertension treatment and a composition thereof” (priority 2017, dated 2021).
One block for each compound: values may come before it.

Assays:
[1] = tested on: inositol triphosphate receptor (IP3R); assay: IP3R study: PE-induced contraction of pre-treated endothelium-denuded aortic rings; type: cell-based, rat; details: 100 μM pre-incubation; P<0.001
Procedure: Similar with the VOCC mechanism study, three sets of experiments were carried out for investigating IP3R including the positive control set by applying the 2-APB (100 μM), control set (without treatment), and experimental sets by applying F1-2 (100 μl of 0.5, 2, and 8 mg/ml, separately, which equals to final concentration of 0.005, 0.02, and 0.08 mg/ml in tissue bath), in the endothelium-denuded isolated aortic rings. Similar protocol as elaborated in VOCC mechanism study was used to investigate this mechanism study. The only step different from VOCC mechanism study was the cumulative addition of CaCl2 was replaced by adding PE (1 μM) and left for 20 minutes to induce transient contraction after the 20 minutes pre-incubation with either 2-APB (positive control), F1-2 (experimental sets). The Cmax values were recorded and compared among each other.

[2] = tested on: voltage-operated calcium channel (VOCC); assay: VOCC study: CaCl2-induced vasoconstriction of pre-treated aortic rings; type: cell-based, rat; details: 0.1, 0.3, 1 μM pre-incubation
Procedure: The experiment started by rinsing the mounted aortic rings with normal Krebs' solution for 3 times at 10 minutes interval. After that, the aortic rings were rinsed with EGTA (0.2 mM) contained Ca^2+-free high K^+ Krebs' solution for 10 minutes to eradicate the Ca^2+ residue, followed by rinsing with Ca^2+-free high K^+ Krebs' solution for twice at 10 minutes intervals. The resting potential was re-adjusted to 1.0 g before the application of any chemicals. In the control set, CaCl2 was added cumulatively (0.01-10 mM) into the tissue bath at 3 minutes interval. […] In the experimental groups, the F1-2 was added into tissue baths for 20 minutes before the addition of CaCl2. After that, the concentration-response curves were constructed, and maximum contraction (Cmax) values were recorded and compared to each other.

[3] = tested on: spontaneous hypertensive rats (SHRs); assay: Antihypertensive effect in SHRs, 28 days oral administration, tail-cuff SBP, DBP, MAP; type: in vivo, rat; details: 80 mg/kg oral
Procedure: All the orally administrated drugs were freshly prepared on the day the experiment was carried out. Thirty male SHRs were divided into five groups (n=6 per group) as such negative control, positive control (80 mg/kg of propranolol), and experimental groups (three different dosages for different groups). The weight, systolic BP, diastolic BP, and MAP of all SHRs in five groups were determined before the experiment was carried out and assigned as results for week 0. The negative control group of SHRs was treated with 5 ml/kg of distilled water. The positive control group was treated with 80 mg/kg of propranolol. The experimental groups were treated with 0.24273 (small dose), 0.48546 (medium dose), and 0.97092 g/kg (high dose) of F1-2, separately. Propranolol and F1-2 were prepared by dissolving in 0.5% of CMC prior to the administration. All drugs were orally administrated by using the 14-sized curved feeding needle (Kent Scientific Corporation, Torrington, Conn., USA) every morning after eight hours of fasting the night before, and were treated for 28 days consecutively with their weight, systolic BP, diastolic BP, and MAP measured once a week.
The SBP, DBP, and MAP were measured by using tail-cuff method with the non-invasive blood pressure measurement system, CODA (Kent Scientific Corporation, Torrington, Conn., USA) which was equipped with a controller, laptop CODA software, cuffs, animal restrainers, infrared warming pads, and infrared thermometer. The measurements were performed by the same researcher at the same daytime once weekly. Before the experiments commenced, the SHRs were housed in the restrainer according to their body size and pre-warmed on the warming plate at 32° C. and were covered by warming blanket for at least 15 minutes to intensify the pulsation of the tail artery. The measurements were repeated at least […] for each SHR to obtain at least six accepted measurements (n=6) by the CODA program. The obtained SBP, DBP, MAP of positive control and experimental groups were compared to the negative control.

- contraction tension abolished compared to control [1]: approximately 97%
SMILES: NCCOB(c1ccccc1)c1ccccc1 [Formula 2-APB, 2-APB]

SMILES: COC(=O)C1=C(C)NC(C)=C(C(=O)OC)C1c1ccccc1[N+](=O)[O-] [nifedipine]
- suppression of the contractile tone compared to control [2]: at least 80%

SMILES: CC(C)NCC(O)COc1cccc2ccccc12 (centres unmarked) [propranolol]
- DBP ([3]; 28 days, control 189.19±3.61): 139.69±3.15 mmHg
- MAP ([3]; 28 days, control 200.97±3.22): 152.06±3.10 mmHg
- SBP ([3]; week 4 (28 days), control 225.81±2.77): 182.08±2.38 mmHg
